Reference: patent US20070010671A1, “Novel quinazoline derivatives and methods of treatment related to the use thereof” (priority 2003, published 2007)

biological target: MCH receptor (Homo sapiens, UniProt Q99705); assay: High throughput functional screening FLIPR/FDSS6000: inhibition of MCH-evoked intracellular Ca2+ changes; format: cell-based; conditions: class by percent of control at 10^-7 M or IC50
Method in brief: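 Antagonism was measured as inhibition of calcium responses to 50 nM MCH, monitored 290 s at ex 488/em 530 nm on FLIPR or FDSS6000. Beforehand, cells bearing a constitutively active MCH receptor received Fluo4-AM (4 μM, 1 h, 37 °C) with probenecid, and test compound for 3 min.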

With `CN(C)c1nc(N[C@H]2CC[C@@H](NC(=S)NCc3ccc(Cl)c(Cl)c3)CC2)nc2ccccc12` [compound 258] as the compound, how does the class read?
The class was 3 (Class 3: The value of percent of control at 10^−7 M was more than 60% or the value of IC50 was more than 200 nM.).

With `COc1cc(NC(=S)N[C@H]2CC[C@@H](Nc3nc(N(C)C)c4ccccc4n3)CC2)cc(OC)c1` [compound 259] as the compound, how does the class read?
Its class is 2 (Class 2: The value of percent of control at 10^−7 M was from 40% to 60% or the value of IC50 was from 50 nM to 200 nM.).

With `Cc1cc(C)cc(NC(=S)N[C@H]2CC[C@@H](Nc3nc(N(C)C)c4ccccc4n3)CC2)c1` [compound 260, N-(cis-4-{[4-(dimethylamino)quinazolin-2-yl]amino}cyclohexyl)-N′-(3,5-dimethylphenyl)thiourea] as the compound, how does the class read?
The class was 2 (Class 2: The value of percent of control at 10^−7 M was from 40% to 60% or the value of IC50 was from 50 nM to 200 nM.).

For `CN(C)c1nc(N[C@H]2CC[C@@H](NC(=S)Nc3cccc(OCc4ccccc4)c3)CC2)nc2ccccc12` [compound 261], which class is on record?
Its class is 3 (Class 3: The value of percent of control at 10^−7 M was more than 60% or the value of IC50 was more than 200 nM.).

For `Cc1ccc(NC(=S)N[C@H]2CC[C@@H](Nc3nc(N(C)C)c4ccccc4n3)CC2)cc1Cl` [compound 262], which class is on record?
Its class is 2 (Class 2: The value of percent of control at 10^−7 M was from 40% to 60% or the value of IC50 was from 50 nM to 200 nM.).

With `COC(=O)c1cccc(NC(=S)N[C@H]2CC[C@@H](Nc3nc(N(C)C)c4ccccc4n3)CC2)c1` [compound 263] as the compound, how does the class read?
Its class is 1 (Class 1: The value of percent of control at 10^−7 M was less than 40% or the value of IC50 was less than 50 nM.).

For `CN(C)c1nc(N[C@H]2CC[C@@H](NC(=S)NCCCc3ccccc3)CC2)nc2ccccc12` [compound 264], which class is on record?
Its class is 3 (Class 3: The value of percent of control at 10^−7 M was more than 60% or the value of IC50 was more than 200 nM.).

Which class does the source give for `CN(C)c1nc(N[C@H]2CC[C@@H](NC(=S)Nc3ccc(OCc4ccccc4)cc3)CC2)nc2ccccc12` [compound 265] here?
Its class is 3 (Class 3: The value of percent of control at 10^−7 M was more than 60% or the value of IC50 was more than 200 nM.).

With `Cc1cc(Br)cc(C)c1NC(=S)N[C@H]1CC[C@@H](Nc2nc(N(C)C)c3ccccc3n2)CC1` [compound 266, N-(4-bromo-2,6-dimethylphenyl)-N′-(cis-4-{[4-(dimethylamino)quinazolin-2-yl]amino}cyclohexyl)thiourea] as the compound, how does the class read?
Its class is 1 (Class 1: The value of percent of control at 10^−7 M was less than 40% or the value of IC50 was less than 50 nM.).

How did the class turn out when `Cc1cc(Br)ccc1NC(=S)N[C@H]1CC[C@@H](Nc2nc(N(C)C)c3ccccc3n2)CC1` [compound 267] was run?
The class was 1 (Class 1: The value of percent of control at 10^−7 M was less than 40% or the value of IC50 was less than 50 nM.).

Which class does the source give for `CN(C)c1nc(N[C@H]2CC[C@@H](NC(=S)Nc3ccc(Br)cc3C(F)(F)F)CC2)nc2ccccc12` [compound 268, N-[4-bromo-2-(trifluoromethyl)phenyl]-N′-(cis-4-{[4-(dimethylamino)quinazolin-2-yl]amino}cyclohexyl)thiourea] here?
The class was 1 (Class 1: The value of percent of control at 10^−7 M was less than 40% or the value of IC50 was less than 50 nM.).

For `Cc1cc(Cl)ccc1NC(=S)N[C@H]1CC[C@@H](Nc2nc(N(C)C)c3ccccc3n2)CC1` [compound 269], which class is on record?
The class was 1 (Class 1: The value of percent of control at 10^−7 M was less than 40% or the value of IC50 was less than 50 nM.).

For `CN(C)c1nc(N[C@H]2CC[C@@H](NC(=S)Nc3ccc(Cl)c([N+](=O)[O-])c3)CC2)nc2ccccc12` [compound 270], which class is on record?
Its class is 3 (Class 3: The value of percent of control at 10^−7 M was more than 60% or the value of IC50 was more than 200 nM.).

`CN(C)c1nc(N[C@H]2CC[C@@H](NC(=S)NCc3ccc(Cl)cc3)CC2)nc2ccccc12` [compound 271] was tested. Which class did it give?
The class was 3 (Class 3: The value of percent of control at 10^−7 M was more than 60% or the value of IC50 was more than 200 nM.).

Which class does the source give for `CCOC(=O)c1ccc(NC(=S)N[C@H]2CC[C@@H](Nc3nc(N(C)C)c4ccccc4n3)CC2)cc1` [compound 272] here?
The class was 3 (Class 3: The value of percent of control at 10^−7 M was more than 60% or the value of IC50 was more than 200 nM.).

How did the class turn out when `CN(C)c1nc(N[C@H]2CC[C@@H](NC(=S)NCc3ccc(F)cc3)CC2)nc2ccccc12` [compound 274, N-(cis-4-{[4-(dimethylamino)quinazolin-2-yl]amino}cyclohexyl)-N′-(4-fluorobenzyl)thiourea] was run?
The class was 2 (Class 2: The value of percent of control at 10^−7 M was from 40% to 60% or the value of IC50 was from 50 nM to 200 nM.).

Which class does the source give for `CC(C)c1ccc(NC(=S)N[C@H]2CC[C@@H](Nc3nc(N(C)C)c4ccccc4n3)CC2)cc1` [compound 275, N-(cis-4-{[4-(dimethylamino)quinazolin-2-yl]amino}cyclohexyl)-N′-(4-isopropylphenyl)thiourea] here?
Its class is 2 (Class 2: The value of percent of control at 10^−7 M was from 40% to 60% or the value of IC50 was from 50 nM to 200 nM.).

With `COc1ccc(NC(=S)N[C@H]2CC[C@@H](Nc3nc(N(C)C)c4ccccc4n3)CC2)c([N+](=O)[O-])c1` [compound 276] as the compound, how does the class read?
Its class is 3 (Class 3: The value of percent of control at 10^−7 M was more than 60% or the value of IC50 was more than 200 nM.).

How did the class turn out when `COc1ccc(CNC(=S)N[C@H]2CC[C@@H](Nc3nc(N(C)C)c4ccccc4n3)CC2)cc1` [compound 277, N-(cis-4-{[4-(dimethylamino)quinazolin-2-yl]amino}cyclohexyl)-N′-(4-methoxybenzyl)thiourea] was run?
The class was 2 (Class 2: The value of percent of control at 10^−7 M was from 40% to 60% or the value of IC50 was from 50 nM to 200 nM.).

How did the class turn out when `COC(=O)c1ccc(NC(=S)N[C@H]2CC[C@@H](Nc3nc(N(C)C)c4ccccc4n3)CC2)cc1` [compound 278] was run?
The class was 2 (Class 2: The value of percent of control at 10^−7 M was from 40% to 60% or the value of IC50 was from 50 nM to 200 nM.).

`Cc1ccc(NC(=S)N[C@H]2CC[C@@H](Nc3nc(N(C)C)c4ccccc4n3)CC2)c([N+](=O)[O-])c1` [compound 279] was tested. Which class did it give?
The class was 3 (Class 3: The value of percent of control at 10^−7 M was more than 60% or the value of IC50 was more than 200 nM.).

`Cc1ccc(CNC(=S)N[C@H]2CC[C@@H](Nc3nc(N(C)C)c4ccccc4n3)CC2)cc1` [compound 280] was tested. Which class did it give?
The class was 3 (Class 3: The value of percent of control at 10^−7 M was more than 60% or the value of IC50 was more than 200 nM.).

For `CCCCc1ccc(NC(=S)N[C@H]2CC[C@@H](Nc3nc(N(C)C)c4ccccc4n3)CC2)cc1` [compound 281], which class is on record?
The class was 3 (Class 3: The value of percent of control at 10^−7 M was more than 60% or the value of IC50 was more than 200 nM.).

How did the class turn out when `COc1ccc(Cl)cc1NC(=S)N[C@H]1CC[C@@H](Nc2nc(N(C)C)c3ccccc3n2)CC1` [compound 282] was run?
Its class is 3 (Class 3: The value of percent of control at 10^−7 M was more than 60% or the value of IC50 was more than 200 nM.).

How did the class turn out when `CN(C)c1nc(N[C@H]2CC[C@@H](NC(=S)NC(c3ccccc3)c3ccccc3)CC2)nc2ccccc12` [compound 284, N-(cis-4-{[4-(dimethylamino)quinazolin-2-yl]amino}cyclohexyl)-N′-(diphenylmethyl)thiourea] was run?
The class was 2 (Class 2: The value of percent of control at 10^−7 M was from 40% to 60% or the value of IC50 was from 50 nM to 200 nM.).

How did the class turn out when `CN(C)c1nc(N[C@H]2CC[C@@H](NC(=S)NC3CCCCCCCCCCC3)CC2)nc2ccccc12` [compound 285] was run?
The class was 3 (Class 3: The value of percent of control at 10^−7 M was more than 60% or the value of IC50 was more than 200 nM.).

How did the class turn out when `CN(C)c1nc(N[C@H]2CC[C@@H](NC(=S)NCC3CCCCC3)CC2)nc2ccccc12` [compound 286, N-(cyclohexylmethyl)-N′-(cis-4-{[4-(dimethylamino)quinazolin-2-yl]amino}cyclohexyl)thiourea] was run?
The class was 2 (Class 2: The value of percent of control at 10^−7 M was from 40% to 60% or the value of IC50 was from 50 nM to 200 nM.).

`CN(C)c1nc(N[C@H]2CC[C@@H](NC(=S)NC3CCCCCCC3)CC2)nc2ccccc12` [compound 287, N-cyclooctyl-N′-(cis-4-{[4-(dimethylamino)quinazolin-2-yl]amino}cyclohexyl)thiourea] was tested. Which class did it give?
Its class is 2 (Class 2: The value of percent of control at 10^−7 M was from 40% to 60% or the value of IC50 was from 50 nM to 200 nM.).

For `CN(C)c1nc(N[C@H]2CC[C@@H](NC(=S)NC3CC3)CC2)nc2ccccc12` [compound 288, N-cyclopropyl-N′-(cis-4-{[4-(dimethylamino)quinazolin-2-yl]amino}cyclohexyl)thiourea], which class is on record?
Its class is 2 (Class 2: The value of percent of control at 10^−7 M was from 40% to 60% or the value of IC50 was from 50 nM to 200 nM.).

With `CN(C)c1nc(N[C@H]2CC[C@@H](NC(=S)NCc3cccc4ccccc34)CC2)nc2ccccc12` [compound 289, N-(cis-4-{[4-(dimethylamino)quinazolin-2-yl]amino}cyclohexyl)-N′-(1-naphthylmethyl)thiourea] as the compound, how does the class read?
The class was 1 (Class 1: The value of percent of control at 10^−7 M was less than 40% or the value of IC50 was less than 50 nM.).

Which class does the source give for `CN(C)c1nc(N[C@H]2CC[C@@H](NC(=S)NCC(c3ccccc3)c3ccccc3)CC2)nc2ccccc12` [compound 290, N-(cis-4-{[4-(dimethylamino)quinazolin-2-yl]amino}cyclohexyl)-N′-(2,2-diphenylethyl)thiourea] here?
Its class is 2 (Class 2: The value of percent of control at 10^−7 M was from 40% to 60% or the value of IC50 was from 50 nM to 200 nM.).

Which class does the source give for `CN(C)c1nc(N[C@H]2CC[C@@H](NC(=S)Nc3c(Cl)c(Cl)cc(Cl)c3Cl)CC2)nc2ccccc12` [compound 291] here?
Its class is 3 (Class 3: The value of percent of control at 10^−7 M was more than 60% or the value of IC50 was more than 200 nM.).

For `COc1cccc(CNC(=S)N[C@H]2CC[C@@H](Nc3nc(N(C)C)c4ccccc4n3)CC2)c1OC` [compound 292, N-(2,3-dimethoxybenzyl)-N′-(cis-4-{[4-(dimethylamino)quinazolin-2-yl]amino}cyclohexyl)thiourea], which class is on record?
Its class is 1 (Class 1: The value of percent of control at 10^−7 M was less than 40% or the value of IC50 was less than 50 nM.).
